From patent US20140227419A1, “ANTI-FUNGAL AGENT FOR PROCESSED CEREAL FOODS” (NAGASE & co., LTD., priority 2011, published 2014)

Test system: mold
Assay: Anti-fungal effect by spraying method (2): loaves with calcium propionate kneaded into the dough sprayed, mold growth checked visually
Conditions: 0.3% calcium propionate kneaded into bread dough; sprayed with nothing
Method: Three hundred and thirty grams of bread dough (dough) of the raw materials blended in the ratio shown in Table 1 (Example 1) was mixed at a low speed for 5 minutes, and then, was mixed at a high speed for 7 minutes. The dough was retained at 35° C. for 100 minutes to be leavened, and then, was baked at 140° C. for 20 minutes to obtain a loaf of bread (hereinafter, referred to as a “loaf”).
The obtained loaf was left to room temperature, and the entire surface of the loaf (approximately 280 g) was sprayed with a spraying agent (approximately 10 μL/cm^2) shown in Table 2 (“0.1% chitinase” means a concentration when 1 mg of chitinase is added with respect to 1 ml of the spraying agent). The loaves were retained in the atmosphere to dry the surface, and then, the loaves were independently put into separate plastic bags and were preserved at a room temperature. The presence or the absence of the growth of mold was checked visually. […]
The anti-fungal effects of the spraying agents 1 to 3 were evaluated in the same manner as in Example 1, except that the raw materials were blended in the ratio shown in Table 1 (Example 2) instead of the ratio shown in Table 1 (Example 1). […]

Question: `CCC(=O)[O-].CCC(=O)[O-].[Ca+2]` [calcium propionate] was tested. Which “Length of preservation time of bread with calcium propionate kneaded into the dough, without spraying” value did it give?
Answer: 11 days
